≈ marks a conversion by molar mass, not a printed value.
What was measured:
physchem = conditions: kinetic from dmso stock
Experimental: Turbimetric Assay: Determination of Solubility
The solubility of the compounds was measured using a turbidimetric method. A series of doubling dilutions of compounds were prepared in neat dimethyl sulfoxide (DMSO). 5 μl samples were diluted twenty-fold into 95 μl volumes of 100 mM citrate buffer (pH 4), phosphate buffered saline (PBS, pH 7.4) or carbonate-bicarbonate buffer (pH 9) in microtitre assay plates and allowed to reach equilibrium at room temperature for 24 hours. The absorbance within each well of the plate was read spectrophotometrically at a wavelength of 620 nm. A precipitate forms when the maximum aqueous solubility level is reached. The value quoted is the highest concentration where the compound was in solution i.e. where no measurable precipitate was present. […] ND=not determined

[1] = tested on: Staphylococcus aureus (Isolate ID ATCC 29213); assay: Antibacterial activity, MIC, S. aureus; format: cell-based; conditions: Staphylococcus aureus, ATCC29213, Gram positive strain; broth microdilution or agar dilution
Experimental: (§1) Bacterial Assay: Determination of Antibacterial Activity
(§2) Compounds of the invention were tested for antimicrobial activity by susceptibility testing in liquid or on solid media. MICs for compounds against each strain were determined by the broth microdilution or agar dilution method according to the guidelines of the Clinical Laboratories and Standards Institute, formerly the National Committee for Clinical Laboratory Standards (Clinical Laboratories and Standards Institute. Methods for Dilution Antimicrobial Susceptibility Tests for Bacteria That Grow Aerobically; Approved Standard—Seventh Edition. Document M7-A7. CLSI, Wayne, Pa., 2006; Clinical Laboratories and Standards Institute. The gram positive bacterial strains tested include S. aureus (Staphylococcus aureus (Isolate ID ATCC 29213)), E. faecalis (Enterococcus faecalis (Isolate ID ATCC 29212)) and S. pyogenes (Streptococcus pyogenes (Isolate ID ATCC 51339)). The gram negative bacterial strains tested include H. influenzae (Haemophilus influenzae (Isolate ID ATCC 49247))

[2] = tested on: Streptococcus pyogenes (Isolate ID ATCC 51339); assay: Antibacterial activity, MIC, S. pyogenes; format: cell-based; conditions: Streptococcus pyogenes, ATCC51339, Gram positive strain; broth microdilution or agar dilution
Experimental: as §1, §2

[3] = tested on: Haemophilus influenzae (Isolate ID ATCC 49247); assay: Antibacterial activity, MIC, H. influenzae; format: cell-based; conditions: Haemophilus influenzae, ATCC49247; Gram negative strain; broth microdilution or agar dilution
Experimental: as §1, §2

[4] = pH 7.4, aqueous buffer, Max Solubility
[5] = pH 7.4, aqueous buffer, Solubility (pH 7.4)
[6] = pH 7.4, aqueous buffer, Solubility Range
[7] = pH 7.4, aqueous buffer, Solubility Range (maximum solubility)
[8] = pH 9, aqueous buffer, Max Solubility
[9] = pH 9, aqueous buffer, Solubility Range (maximum solubility)

Structure (SMILES)	solubility at 24 h (physchem; [4])	solubility at 24 h (physchem; [5])	solubility at 24 h (physchem; [6])	solubility at 24 h (physchem; [7])	MIC [1]	MIC [2]	MIC [3]	solubility at 24 h (physchem; [8])	solubility at 24 h (physchem; [9])
CCNC(=O)Nc1nc2cc(-c3cnc(N4CCC(C)(C(=O)O)CC4)nc3)cc(COC)c2s1 [Compound 202, 1-[5-[2-(Ethylcarbamoylamino)-7-(methoxymethyl)-1,3-benzothiazol-5-yl]pyrimidin-2-yl]-4-methyl-piperidine-4-carboxylic acid]	≥ 800 µg/mL	≥ 800 µg/mL	> 800 µg/mL	> 800 µg/mL	1 to 16 µg/mL (≈ 2.06 to 33 µM)	1 to 16 µg/mL (≈ 2.06 to 33 µM)	0.25 to 1 µg/mL (≈ 0.516 to 2.06 µM)		
CCNC(=O)Nc1nc2cc(-c3cnc(N4CCC(CC)(C(=O)O)CC4)nc3)cc(COC)c2s1 [Compound 203, 4-Ethyl-1-[5-[2-(ethylcarbamoylamino)-7-(methoxymethyl)-1,3-benzothiazol-5-yl]pyrimidin-2-yl]piperidine-4-carboxylic acid]		100 µg/mL (≈ 201 µM)	12.5 to 400 µg/mL (≈ 25.1 to 802 µM)		1 to 16 µg/mL (≈ 2.01 to 32.1 µM)	1 to 16 µg/mL (≈ 2.01 to 32.1 µM)	1 to 16 µg/mL (≈ 2.01 to 32.1 µM)	≥ 800 µg/mL	> 800 µg/mL
CCNC(=O)Nc1nc2cc(-c3cnc(N4CCC(C)(C(=O)O)CC4)nc3)cc(/C=N/OCC)c2s1 [Compound 204]	≥ 800 µg/mL	≥ 800 µg/mL	> 800 µg/mL	> 800 µg/mL	0.25 to 1 µg/mL (≈ 0.489 to 1.95 µM)	0.25 to 1 µg/mL (≈ 0.489 to 1.95 µM)	1 to 16 µg/mL (≈ 1.95 to 31.3 µM)		
CCNC(=O)Nc1nc2cc(-c3cnc(N4CCC(C)(C(=O)O)CC4)nc3)cc(-c3ccc(CN4CCOCC4)cn3)c2s1 [Compound 205]		400 µg/mL (≈ 649 µM)	400 to 800 µg/mL (≈ 649 to 1300 µM)		0.25 to 1 µg/mL (≈ 0.405 to 1.62 µM)	0.25 to 1 µg/mL (≈ 0.405 to 1.62 µM)	1 to 16 µg/mL (≈ 1.62 to 25.9 µM)	≥ 800 µg/mL	> 800 µg/mL
CCNC(=O)Nc1nc2cc(-c3cnc(N4CCC(CC)(C(=O)O)C4)nc3)cc(-c3ccccn3)c2s1 (stereo not drawn) [Compound 206]	≥ 800 µg/mL	≥ 800 µg/mL	> 800 µg/mL	> 800 µg/mL	0.25 to 1 µg/mL (≈ 0.483 to 1.93 µM)	≤ 0.25 µg/mL	1 to 16 µg/mL (≈ 1.93 to 30.9 µM)		

More lines, now with the values ahead:

solubility at 24 h (physchem; [4])	solubility at 24 h (physchem; [5])	solubility at 24 h (physchem; [6])	solubility at 24 h (physchem; [7])	MIC [1]	MIC [2]	MIC [3]	solubility at 24 h (physchem; [8])	solubility at 24 h (physchem; [9])	Structure (SMILES)
	100 µg/mL (≈ 196 µM)	12.5 to 400 µg/mL (≈ 24.5 to 783 µM)		0.25 to 1 µg/mL (≈ 0.49 to 1.96 µM)	0.25 to 1 µg/mL (≈ 0.49 to 1.96 µM)	1 to 16 µg/mL (≈ 1.96 to 31.3 µM)	400 µg/mL (≈ 783 µM)	400 to 800 µg/mL (≈ 783 to 1570 µM)	CCNC(=O)Nc1nc2cc(-c3cnc(N4CCC(CC)(C(=O)O)CC4)nc3)cc(C(=O)CC)c2s1 [Compound 207, 4-Ethyl-1-(5-(2-(3-ethylureido)-7-propionylbenzo[d]thiazol-5-yl)pyrimidin-2-yl)piperidine-4-carboxylic acid]
	100 µg/mL (≈ 182 µM)	12.5 to 400 µg/mL (≈ 22.7 to 728 µM)		0.25 to 1 µg/mL (≈ 0.455 to 1.82 µM)	1 to 16 µg/mL (≈ 1.82 to 29.1 µM)	1 to 16 µg/mL (≈ 1.82 to 29.1 µM)	200 µg/mL (≈ 364 µM)	12.5 to 400 µg/mL (≈ 22.7 to 728 µM)	CCNC(=O)Nc1nc2cc(-c3cnc(N4CCC(C)(C(=O)O)CC4)nc3)c(OC)c(Br)c2s1 [Compound 208, 1-[5-[7-bromo-2-(ethylcarbamoylamino)-6-methoxy-1,3-benzothiazol-5-yl]pyrimidin-2-yl]-4-methyl-piperidine-4-carboxylic acid]
	200 µg/mL (≈ 373 µM)	12.5 to 400 µg/mL (≈ 23.3 to 745 µM)		0.25 to 1 µg/mL (≈ 0.466 to 1.86 µM)	0.25 to 1 µg/mL (≈ 0.466 to 1.86 µM)	1 to 16 µg/mL (≈ 1.86 to 29.8 µM)	400 µg/mL (≈ 745 µM)	400 to 800 µg/mL (≈ 745 to 1490 µM)	CCNC(=O)Nc1nc2cc(-c3csc(N4CCC(CC)(C(=O)O)CC4)n3)cc(-c3ccccn3)c2s1 [Compound 209, 4-Ethyl-1-[4-[2-(ethylcarbamoylamino)-7-(2-pyridyl)-1,3-benzothiazol-5-yl]thiazol-2-yl]piperidine-4-carboxylic acid]
200 µg/mL (≈ 375 µM)	200 µg/mL (≈ 375 µM)	12.5 to 400 µg/mL (≈ 23.5 to 751 µM)	12.5 to 400 µg/mL (≈ 23.5 to 751 µM)	0.25 to 1 µg/mL (≈ 0.469 to 1.88 µM)	≤ 0.25 µg/mL	1 to 16 µg/mL (≈ 1.88 to 30 µM)			CCNC(=O)Nc1nc2cc(-c3cnc(N4CCC(CC)(C(=O)O)CC4)nc3)nc(-c3ccccn3)c2s1 [Compound 210]

Source: patent publication US9181234B2, “Antibacterial compounds” (priority 2010, dated 2015)
